{
  "source": "patent US20200390743A1",
  "about": "“Methods and Compositions For Improving Outcomes of Cancer Patients” (Reven IP HoldCo LLC, priority 2019, published 2020)",
  "origin": "cited, not measured here",
  "key": {"[1]": {"conditions": "241 osteoporotic women"}, "[2]": {"conditions": "rats, 100 mg/kg body weight daily"}},
  "data": [
    {"compound": "CC(C)=CCC/C(C)=C/CC/C(C)=C/CC/C(C)=C/CC1=C(C)C(=O)c2ccccc2C1=O", "note": "[Vitamin K2]", "values": [
      {"measurement": "total cholesterol levels, lipid peroxidation, ester cholesterol deposition in the aorta and factor X activity in plasma", "setting": "compared to the control group", "value": "reduce"},
      {"measurement": "atherosclerotic plaque progression in the aorta and pulmonary arteries", "setting": "rabbits, 1-10 mg/kg daily for 10 weeks", "value": "inhibited the atherosclerotic plaque progression"},
      {"measurement": "fracture incidence", "setting": "[1]; 45 mg/day vitamin K2 and 150 mg elemental calcium, two years, 30% in control group", "value": 10, "unit": "%"},
      {"measurement": "lumbar bone mineral density", "setting": "[1]; 45 mg/day, after two years", "value": "maintain"},
      {"measurement": "calcium in kidneys and aorta induced by megadose of synthetic vitamin D", "setting": "[2]", "value": "inhibited the increase in calcium"}
    ]}
  ]
}
